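Five concentrations, 48 hours, 96-well plates. GI50 marks 50% less growth.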 Calls of active or inactive are those of the source. Rule as the data show it: active = GI50 up to about 1.1 µM and inactive = higher.

What all share (experiment): DTP human tumour cell line panel, 48 h
For assay [1], the system named is DLD-1.
For assay [2], the system named is DMS-273.
Assay [3] deals with M19-MEL.
Assay [4] relates to DMS-114.
For assay [5], the system named is KM-20L2.
For assay [6], the system named is XF498.
The subject of assay [7] is SNB-78.
Assay [8] relates to RXF 631.
Assay [9] relates to LXFL 529.

As usually defined, the GI50 is the concentration at which growth is held to half of that of the control. Consider `C/C(=N\N=C(/[SeH])N1CC2CCC(CC2)C1)c1ccccn1`, for which the GI50 is < 0.01 µM (active) in [1]; 0.0136 µM (active) in assay [2]; 0.0449 µM (active) in assay [3]; < 0.01 µM (active) in [4]; < 0.01 µM (active) in assay [5]; < 0.01 µM (active) in [6]. The GI50 in [7] was 0.216 µM (active); in [8], 0.4 µM (active); in assay [9], < 0.01 µM (active).
Turning to `COC(=O)C1C(=O)N(CCc2c[nH]c3ccccc23)C[C@@H]2CCC(=O)C[C@H]12` (stereo partly drawn), the GI50 in assay [1], in assay [2], in assay [3], in [4], in assay [6] and in assay [7] was > 100 µM (inactive) throughout. Moreover, the GI50 in [8] and in assay [9] was > 100 µM (inactive) throughout.
Turning to `O=C1CC(c2ccc(Cl)cc2)=Nc2ccccc2N1`, the GI50 was > 100 µM (inactive) in [1]; 79.1 µM (inactive) in assay [2]; > 100 µM (inactive) in assay [3]; 81.5 µM (inactive) in assay [4]; > 100 µM (inactive) in assay [5]; 86.7 µM (inactive) in [7]. Moreover, the values for the GI50 in [8] and in [9] were 74.6 µM (inactive) and > 100 µM (inactive), respectively.
`N=C(N)n1ncc(Cl)c(Cl)c1=O`: the GI50 in assay [1] was 2.38 µM (inactive); in [2], 2.28 µM (inactive); in assay [3], 1.69 µM (inactive); in [4] it was 1.85 µM (inactive); in assay [5], 4.33 µM (inactive); in assay [6] it was 1.81 µM (inactive). Moreover, the results for the GI50 in assay [7], in assay [8] and in assay [9] were 1.98 µM (inactive), 1.81 µM (inactive) and 1.8 µM (inactive), respectively.
Consider `Cc1cccc(C)c1NC(=O)CCC(=O)NNc1nnc(C)n1N`, for which the GI50 in assay [1], in assay [2], in [3], in [4], in assay [5] and in assay [6] was > 100 µM (inactive) in each case. In addition, the GI50 in assay [7], in [8] and in assay [9] was > 100 µM (inactive) in each case.
For `NC(=O)c1c2c(cc3c(=O)c4ccccc4[nH]c13)CCCC2`, the GI50 was > 73.1 µM (inactive) in [1]; > 100 µM (inactive) in assay [2]; > 100 µM (inactive) in assay [3]; > 100 µM (inactive) in assay [4]; > 100 µM (inactive) in assay [5]; > 100 µM (inactive) in [6]. In addition, the GI50 in assay [8] and in assay [9] was > 100 µM (inactive) each time.
On to `CC12CCC[C@@](C)(C(=O)OC3OC(CO)C(O)C(O)C3O)[C@H]1CCC13CC4CC(OC4(CO)[C@H]1O)[C@@H]23` (stereo partly drawn), for which the GI50 in assay [1] is > 100 µM (inactive); in assay [2], > 100 µM (inactive); in assay [3] it was > 100 µM (inactive); in assay [4], 24.9 µM (inactive); in [5] it was > 100 µM (inactive); in assay [6], > 100 µM (inactive). Besides, the GI50 in [7], in [8] and in assay [9] was > 100 µM (inactive) throughout.
Turning to `CC1CC[C@]2(C(=O)O)CCC3(COC(=O)/C=C\c4ccc(O)cc4)C(=CCC4[C@@]5(C)CC[C@H](O)C(C)(C)C5CC[C@]43C)[C@@H]2[C@H]1C` (stereo partly drawn), the GI50 in assay [1] was 10.8 µM (inactive); in [2], 20.3 µM (inactive); in [3], 21.7 µM (inactive); in assay [4] it was 25.7 µM (inactive); in assay [5] it was 18.4 µM (inactive); in [7] it was > 100 µM (inactive). For the same molecule, the values for the GI50 in assay [8] and in assay [9] were 24.4 µM (inactive) and 22.7 µM (inactive), respectively.

The record behind these values is ChEMBL document CHEMBL1201862, “PubChem BioAssay data set” (2004).
